Marks after values point to notes of the source that are not given here.
Experiments:
Type in all cases: cell-based
[1] = tested on: Pfeiffer cells; assay: Human diffuse large B-cell lymphoma cell line Pfeiffer proliferation suppression test; conditions: 144 h, compound 10 μM, 3 days + re-plating with compound 3 days, WST-8, read-out: cell survival rate (% of control) Pfeiffer
Excerpt: Example 52: Human Diffuse Large B-Cell Lymphoma Cell Line Pfeiffer Proliferation Suppression Test
(§1) Pfeiffer cells (ATCC, CRL-2632) were suspended in medium B, and diluted as appropriate with 0.4% trypan blue solution (Sigma-Aldrich Co. LLC.). The number of viable cells was counted with a hemocytometer (Funakoshi Co., Ltd.). A cell suspension obtained by diluting with medium B such that the value obtained was 1.3×10^5 cells/mL was dispensed into a Falcon 96 well flat bottom plate (Corning Incorporated) at 75 μL/well, and culture was started at 37° C. under 5% CO2 stream. The next day, a solution obtained by diluting 4 mM DMSO solution of the test compound 100-fold with medium B was added by 25 μL to each well (final concentration of test compound 10 μM). 25 μL of a solution obtained by diluting DMSO 100-fold with medium B was added to the control well. After culturing at 37° C. in a 5% CO2 stream for 3 days, the cell culture medium was uniformly suspended with a multi channel pipette, 14 μL per well was transferred into another new Falcon 96 well flat bottom plate. A solution obtained by diluting 4 mM DMSO solution of the same test compound as the first time 400-fold with medium B was added by 86 μL to a total amount of 100 μL (final concentration of test compound 10 μM). After culturing at 37° C. in a 5% CO2 stream for 3 days, the cell proliferation activity was measured according to the instruction manual attached to WST-8 Kit (KISHIDA CHEMICAL Co., Ltd.).

[2] = tested on: REC-1 cells; assay: Human mantle cell lymphoma cell line REC-1 proliferation suppression test; conditions: Rec1, 72 h, compound 10 μM, 3 days, WST-8, read-out: cell survival rate (% of control) REC-1
Procedure: Example 53: Human Mantle Cell Lymphoma Cell Line REC-1 Proliferation Suppression Test
as §1, with “REC-1” for “Pfeiffer”, “CRL-3004)” for “CRL-2632)”, “cell” for “cell culture medium was uniformly suspended with a multi channel pipette, 14 μL per well was transferred into another new Falcon 96 well flat bottom plate. A solution obtained by diluting 4 mM DMSO solution of the same test compound as the first time 400-fold with medium B was added by 86 μL to a total amount of 100 μL (final concentration of test compound 10 μM). After culturing at 37° C. in a 5% CO2 stream for 3 days, the cell”

[3] = tested on: human peripheral blood mononuclear cells (PBMC); assay: Cytotoxicity test using human peripheral blood mononuclear cells (PBMC); conditions: LPS, 24 hr
Procedure: Example 56: Cytotoxicity Test Using Human Peripheral Blood Mononuclear Cells (PBMC)
Peripheral blood of a healthy adult was collected in a Venoject II vacuum blood collection tube (Terumo, containing EDTA/2Na), and then diluted two-fold with an equal volume of OTSUKA NORMAL SALINE (Otsuka Pharmaceutical Co., Ltd.). The diluted blood was mixed with Lymphoprep (AXIS-SHIELD) in half the volume of the diluted blood, dispensed into a 15 mL conical tube, and centrifuged at room temperature for 20 min (2,100 rpm). The mononuclear cells accumulated at the interface between Lymphoprep and plasma was transferred to a 50 mL conical tube, diluted with OTSUKA NORMAL SALINE, and the mononuclear cells suspension was centrifuged at room temperature for 10 min (1,150 rpm) and then the supernatant was removed. The mononuclear cells fraction obtained as a precipitate was suspended in an appropriate amount of medium A, and diluted as appropriate with 0.4% trypan blue solution (Sigma-Aldrich Co. LLC.). The number of viable cells was counted with a hemocytometer (ERMA INC.). It was diluted with medium A such that the value obtained was 5×10^5 cells/mL. On the other hand, 37.5 μL of medium A, 2.5 μL of 0.4 mg/mL test compound solution (DMSO solution 10-fold diluted with medium A), and 10 μL of 10 μg/mL lipopolysaccharide (Sigma-Aldrich Co. LLC.) solution (diluted with medium A) were each added in advance to the same well of a Falcon 96-well flat bottom plate (Corning Incorporated), and the above-mentioned cell suspension was dispensed at 50 μL/well (final concentration of test compound 10 μg/mL). 2.5 μL of DMSO diluted 10-fold with medium A was added to the control well instead of the compound solution. After culturing at 37° C. in a 5% CO2 stream for 24 hr, the cell survival rate was measured using WST-1 (DOJINDO LABORATORIES) or WST-8 kit (KISHIDA CHEMICAL Co., Ltd.) and according to each instruction manual attached thereto.

[4] = compound 10 μg/mL, WST-1 or WST-8

SMILES	viability at 10 µM [1] [%]	viability at 10 µM [2] [%]	cell survival rate (% of control) PBMC [3, 4]	cell survival rate (% of control) PBMC ([3]; 3 μg/mL due to precipitation of compound in medium)
COc1c(-c2cn(C3CCC(=O)NC3=O)nn2)csc1Br (stereo not drawn) [compound 23, 3-[4-(5-bromo-4-methoxythiophen-3-yl)-1H-1,2,3-triazol-1-yl]piperidine-2,6-dione]	97	70	104 % of control	–
CCOc1cc(-c2cn(C3CCC(=O)NC3=O)nn2)cs1 (stereo not drawn) [compound 24, 3-[4-(5-ethoxythiophen-3-yl)-1H-1,2,3-triazol-1-yl]piperidine-2,6-dione]	91	46	91 % of control	–
CCCCOc1cscc1-c1cn(C2CCC(=O)NC2=O)nn1 (stereo not drawn) [compound 25, 3-[4-(4-butoxythiophen-3-yl)-1H-1,2,3-triazol-1-yl]piperidine-2,6-dione]	84	57	118 % of control	–
CC(C)Oc1cscc1-c1cn(C2CCC(=O)NC2=O)nn1 (stereo not drawn) [compound 26, 3-[4-(4-isopropoxythiophen-3-yl)-1H-1,2,3-triazol-1-yl]piperidine-2,6-dione]	82	23	42 % of control	–
O=C1CCC(n2cc(-c3cscc3OC3CCCC3)nn2)C(=O)N1 (stereo not drawn) [compound 27, 3-{4-[4-(cyclopentyloxy)thiophen-3-yl]-1H-1,2,3-triazol-1-yl}piperidine-2,6-dione]	98	80	107 % of control	–
O=C1CCC(n2cc(-c3cscc3OCC3CC3)nn2)C(=O)N1 (stereo not drawn) [compound 28, 3-{4-[4-(cyclopropylmethoxy)thiophen-3-yl]-1H-1,2,3-triazol-1-yl}piperidine-2,6-dione]	91	58	89 % of control	–
O=C1CCC(n2cc(-c3cscc3OCC3CCCC3)nn2)C(=O)N1 (stereo not drawn) [compound 29, 3-{4-[4-(cyclopentylmethoxy)thiophen-3-yl]-1H-1,2,3-triazol-1-yl}piperidine-2,6-dione]	110	86	104 % of control	–
O=C1CCC(n2cc(-c3cscc3OCC3CCCCC3)nn2)C(=O)N1 (stereo not drawn) [compound 30, 3-{4-[4-(cyclohexylmethoxy)thiophen-3-yl]-1H-1,2,3-triazol-1-yl}piperidine-2,6-dione]	99	49	70 % of control	–
COc1ccc(COc2cscc2-c2cn(C3CCC(=O)NC3=O)nn2)cc1 (stereo not drawn) [compound 31, 3-{4-[4-(4-methoxybenzyloxy)thiophen-3-yl]-1H-1,2,3-triazol-1-yl}piperidine-2,6-dione]	82	27	–	106** % of control
O=C1CCC(n2cc(-c3cscc3OCc3ccccc3)nn2)C(=O)N1 (stereo not drawn) [compound 32, 3-{4-[4-(benzyloxy)thiophen-3-yl]-1H-1,2,3-triazol-1-yl}piperidine-2,6-dione]	60	15	66 % of control	–
O=C1CCC(n2cc(-c3cscc3OCc3ccncc3)nn2)C(=O)N1 (stereo not drawn) [compound 33, 3-{4-[4-(pyridin-4-ylmethoxy)thiophen-3-yl]-1H-1,2,3-triazol-1-yl}piperidine-2,6-dione]	71	27	78 % of control	–
O=C1CCC(n2cc(-c3cscc3OCc3ccccn3)nn2)C(=O)N1 (stereo not drawn) [compound 34, 3-{4-[4-(pyridin-2-ylmethoxy)thiophen-3-yl]-1H-1,2,3-triazol-1-yl}piperidine-2,6-dione]	104	33	95 % of control	–
O=C1CCC(n2cc(-c3cscc3OCc3cccnc3)nn2)C(=O)N1 (stereo not drawn) [compound 35, 3-{4-[4-(pyridin-3-ylmethoxy)thiophen-3-yl]-1H-1,2,3-triazol-1-yl}piperidine-2,6-dione]	104	39	100 % of control	–
O=C1CCC(n2cc(-c3cscc3OCc3ccc(CN4CCOCC4)cc3)nn2)C(=O)N1 (stereo not drawn) [compound 36, 3-(4-{4-[4-(morpholinomethyl)benzyloxy]thiophen-3-yl}-1H-1,2,3-triazol-1-yl)piperidine-2,6-dione]	34	2	59 % of control	–
COCc1ccc(COc2cscc2-c2cn(C3CCC(=O)NC3=O)nn2)cc1 (stereo not drawn) [compound 37, 3-(4-{4-[4-(methoxymethyl)benzyloxy]thiophen-3-yl}-1H-1,2,3-triazol-1-yl)piperidine-2,6-dione]	71	17	99 % of control	–
C[C@@H]1CN(Cc2ccc(COc3cscc3-c3cn(C4CCC(=O)NC4=O)nn3)cc2)C[C@H](C)O1 (stereo partly drawn) [compound 38, 3-{4-[4-(4-{[(2S,6R)-2,6-dimethylmorpholino]methyl}benzyloxy)thiophen-3-yl]-1H-1,2,3-triazol-1-yl}piperidine-2,6-dione]	29	5	110 % of control	–
O=C1CCC(n2cc(-c3cscc3OCc3cccc(CN4CCOCC4)c3)nn2)C(=O)N1 (stereo not drawn) [compound 39, 3-(4-{4-[3-(morpholinomethyl)benzyloxy]thiophen-3-yl}-1H-1,2,3-triazol-1-yl)piperidine-2,6-dione]	69	24	98 % of control	–
O=C1CCC(n2cc(-c3cscc3OCc3ccccc3CN3CCOCC3)nn2)C(=O)N1 (stereo not drawn) [compound 40, 3-(4-{4-[2-(morpholinomethyl)benzyloxy]thiophen-3-yl}-1H-1,2,3-triazol-1-yl)piperidine-2,6-dione]	91	33	96 % of control	–
Cl.O=C1CCC(n2cc(-c3cscc3OCc3ccc(CN4CCCC4)cc3)nn2)C(=O)N1 (stereo not drawn) [compound 41, 3-(4-{4-[4-(pyrrolidin-1-ylmethyl)benzyloxy]thiophen-3-yl}-1H-1,2,3-triazol-1-yl)piperidine-2,6-dione hydrochloride]	72	20	110 % of control	–
Cl.O=C1CCC(n2cc(-c3cscc3OCc3ccc(CN4CCCCC4)cc3)nn2)C(=O)N1 (stereo not drawn) [compound 42, 3-(4-{4-[4-(piperidin-1-ylmethyl)benzyloxy]thiophen-3-yl}-1H-1,2,3-triazol-1-yl)piperidine-2,6-dione hydrochloride]	63	13	103 % of control	–

Source: patent US11299485B2, “Thiophene derivative and use thereof” (FUJIMOTO CO., LTD., priority 2018, dated 2022)
